Experimental data: patent EP1604970A1, “2-(Biphenyl-3-yl)-carboxylic acids of gamma-secretase-modulating activity” (CELLZOME AG, priority 2004, dated 2005)

What follows are compounds tested on γ-secretase (assay: Screening for γ-secretase-modulating activity in SKN neuroblastoma cells carrying the APP "swedish mutation" (assay of Citron et al 1997)). Details: not given.
Type: cell-based
Protocol: Screening was carried out using SKN neuroblastoma cells carrying the APP-"swedish mutation" (point mutation at 695 of APP) grown in DMEM/NUT-mix F12 (HAM) provided by Gibco (cat no. 31330-38) containing 5% Serum/Fe supplemented with 1% non-essential amino acids, 100 U/ml Pen/Strep. Cells were grown to near confluency. The screening was performed using the assay as described in Citron et al (1997), Nature Medicine. Vol 3: 67-72

| SMILES | IC50 |
| --- | --- |
| CC(C(=O)O)c1cccc(-c2ccc(OC(F)(F)F)cc2)c1 (stereo not drawn) [2-(4'-Trifluoromethoxy-biphenyl-3-yl)-propionic acid] | 75 µM |
| CC(C(=O)O)c1cccc(-c2ccc(Cl)cc2)c1 (stereo not drawn) [2-(4'-Chloro-biphenyl-3-yl)-propionic acid] | 41 µM |

More lines, in order of falling IC50, values ahead:

| IC50 | SMILES |
| --- | --- |
| 247 µM | C[C@@H](C(=O)O)c1ccc(-c2ccccc2)c(F)c1 [R-Flurbiprofen, reference compound] |
| 84 µM | O=C(O)Cc1cccc(-c2ccc(C(F)(F)F)cc2)c1 [(4'-Trifluoromethyl-biphenyl-3-yl)-acetic acid] |
| 24 µM | CC(C(=O)O)c1cccc(-c2ccc(C(F)(F)F)cc2)c1 (stereo not drawn) [2-(4'-Trifluoromethyl-biphenyl-3-yl)-propionic acid] |

Each compound was assayed against T1, cyclooxygenase-1 (Cox-1) (Ovis aries, UniProt P05979) (assay: Colorimetric Cox inhibitor screening assay (Cayman Chemical, Cat. No. 760111)). Details: at concentrations of up to 300uM.
T1 construct: purchased Cayman Chemical Company 760111
T1 sequence (P05979 25-600): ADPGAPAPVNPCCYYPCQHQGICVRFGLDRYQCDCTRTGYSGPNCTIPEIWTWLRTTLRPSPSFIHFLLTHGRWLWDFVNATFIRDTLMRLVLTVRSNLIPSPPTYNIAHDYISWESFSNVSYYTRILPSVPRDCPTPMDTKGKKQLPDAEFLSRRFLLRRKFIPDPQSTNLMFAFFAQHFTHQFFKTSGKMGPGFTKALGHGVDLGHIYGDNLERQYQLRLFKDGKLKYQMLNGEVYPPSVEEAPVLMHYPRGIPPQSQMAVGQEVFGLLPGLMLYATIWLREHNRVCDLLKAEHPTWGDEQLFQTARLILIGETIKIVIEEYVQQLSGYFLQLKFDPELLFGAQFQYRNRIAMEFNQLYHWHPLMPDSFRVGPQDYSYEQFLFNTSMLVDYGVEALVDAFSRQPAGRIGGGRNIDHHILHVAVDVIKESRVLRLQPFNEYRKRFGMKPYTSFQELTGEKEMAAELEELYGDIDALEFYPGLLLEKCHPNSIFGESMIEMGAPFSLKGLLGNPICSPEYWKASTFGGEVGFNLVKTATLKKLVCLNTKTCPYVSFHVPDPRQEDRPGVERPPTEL
Type: biochemical
Protocol: Inhibition of Cox-1 was determined using the Colorimetric Cox inhibitor screening assay provided by Cayman Chemical Company, Ann Arbor, MI, USA. (Cat. No. 760111) according to manufacturer's instructions. Exemplary studies were carried out using 2-(4'-trifluoromethyl-biphenyl-3-yl)-propionic acid.

| effect on the Cox-1 activity | SMILES |
| --- | --- |
| No significant effect | CC(C(=O)O)c1cccc(-c2ccc(C(F)(F)F)cc2)c1 (stereo not drawn) [2-(4'-Trifluoromethyl-biphenyl-3-yl)-propionic acid] |
